# Source: patent US20260308145A1, “CDK2 INHIBITORS AND METHODS OF USING SAME” (Shenzhen lonova Life Science Co., Ltd., priority 2023, published 2026)
# Tests used:
# Assay type in all cases: biochemical
# [1] = molecular target: T1, CDK4/cyclinD3 (Homo sapiens, UniProt P11802); test: Cyclin-dependent kinase activity assay (continuous ATP coupling assay), CDK4/cyclinD3; conditions: CDK4/cyclinD3 60 nM, ATP 500 μM, Rb copeptide 500 μM, 15 min preincubation, pH 7.5, 1% DMSO
# T1 construct: purchased Carna Biosciences 04-105
# Experimental: (§1) Cyclin-dependent kinase activity assay was measured by continuous ATP coupling assay in which ADP generated by kinase catalyzed phosphorylation was converted back to ATP by consuming phosphoenolpyruvate (PEP) and NADH catalyzed by pyruvate kinase/lactate dehydrogenase (PK/LDH). The assay compositions (see, Table 1) consist of one of the kinases, including CDK1/cyclinB1, CDK2/cyclinE1, CDK4/cyclinD3, and CDK6/cyclinD3 at the designated concentration, ATP at the corresponding Km of the kinase, copeptide and the ATP coupling system of PEP, NADH and PK/LDH. The assay was conducted in a reaction buffer of 20 mM Tris (pH 7.5) with 50 mM NaCl, 0.5 mM DTT and 0.04% BSA, and results were monitored continuously by fluorescence decrease of NADH with excitation at 340 nm and emission at 460 nm. Linear regression of the resulting reaction time traces gave reaction velocities.
# (§2) For inhibition assay, compounds were first serial diluted in a 1:3 ratio from 10 μM to 0.05 nM using 10× reaction buffer. One of the CDK kinase was then introduced to compounds solution and incubated for 15 min. Finally, the compositions of ATP coupling system were introduced to the resulting solution to initiate the reaction. The final reaction mixture was in 1× reaction assay buffer with 1% DMSO. The half-maximal inhibition concentrations (IC50) for compounds were determined by fitting the plots of reaction velocity against compound concentration with 4-variable IC50 equation. The inhibition constants (Ki) were determined by fitting the same plots with quadratic/Morrison equation. Data were analyzed using commercially available software Graphpad Prism.
# (§3) Exemplary results are presented as calculated IC50 values. • A: IC50≤10 nM • B: IC50>10 nM and IC50<100 nM • C: IC50≥100 nM
# [2] = molecular target: T2, CDK1/cyclinB1 (Homo sapiens, UniProt P06493); test: Cyclin-dependent kinase activity assay (continuous ATP coupling assay), CDK1/cyclinB1; conditions: CDK1/cyclinB1 10 nM, ATP 200 μM, Histone1 copeptide 100 μM, 15 min preincubation, pH 7.5, 1% DMSO
# T2 construct: purchased Carna Biosciences 04-102
# Experimental: as §1, §2, §3
# [3] = molecular target: T3, CDK6/cyclinD3 (Homo sapiens, UniProt Q00534); test: Cyclin-dependent kinase activity assay (continuous ATP coupling assay), CDK6/cyclinD3; conditions: CDK6/cyclinD3 25 nM, ATP 500 μM, Rb copeptide 500 μM, 15 min preincubation, pH 7.5, 1% DMSO
# T3 construct: purchased Carna Biosciences 04-107
# Experimental: as §1, §2, §3
# [4] = molecular target: T4, CDK2/cyclinE1 (Homo sapiens, UniProt P24941); test: Cyclin-dependent kinase activity assay (continuous ATP coupling assay), CDK2/cyclinE1; conditions: CDK2/cyclinE1 5 nM, ATP 300 μM, Rb copeptide 100 μM, 15 min preincubation, pH 7.5, 1% DMSO
# T4 construct: purchased Carna Biosciences 04-165
# Experimental: as §1, §2, §3
# T2 sequence (P06493 whole entry): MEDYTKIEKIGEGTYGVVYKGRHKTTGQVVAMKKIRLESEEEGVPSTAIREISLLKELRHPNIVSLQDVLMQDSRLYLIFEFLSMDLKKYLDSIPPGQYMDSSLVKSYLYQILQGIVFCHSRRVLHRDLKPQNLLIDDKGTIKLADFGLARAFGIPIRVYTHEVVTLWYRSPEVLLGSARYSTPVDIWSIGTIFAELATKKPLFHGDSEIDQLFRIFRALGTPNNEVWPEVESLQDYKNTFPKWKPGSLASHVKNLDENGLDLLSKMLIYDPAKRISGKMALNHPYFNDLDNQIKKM
# T2 sequence (P14635 whole entry partner): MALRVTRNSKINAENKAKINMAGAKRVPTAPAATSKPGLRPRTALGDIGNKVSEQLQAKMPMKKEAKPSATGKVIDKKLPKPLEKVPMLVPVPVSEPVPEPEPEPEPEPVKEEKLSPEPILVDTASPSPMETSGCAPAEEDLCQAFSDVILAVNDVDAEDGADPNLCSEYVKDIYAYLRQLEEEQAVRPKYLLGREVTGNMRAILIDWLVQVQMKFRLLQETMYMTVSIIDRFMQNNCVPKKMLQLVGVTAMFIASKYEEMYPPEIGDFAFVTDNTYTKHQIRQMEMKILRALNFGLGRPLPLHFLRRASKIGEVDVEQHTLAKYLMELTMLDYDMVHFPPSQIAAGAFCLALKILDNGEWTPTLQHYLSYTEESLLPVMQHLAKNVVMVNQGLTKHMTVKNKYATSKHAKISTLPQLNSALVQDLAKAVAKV
# T3 sequence (Q00534 whole entry): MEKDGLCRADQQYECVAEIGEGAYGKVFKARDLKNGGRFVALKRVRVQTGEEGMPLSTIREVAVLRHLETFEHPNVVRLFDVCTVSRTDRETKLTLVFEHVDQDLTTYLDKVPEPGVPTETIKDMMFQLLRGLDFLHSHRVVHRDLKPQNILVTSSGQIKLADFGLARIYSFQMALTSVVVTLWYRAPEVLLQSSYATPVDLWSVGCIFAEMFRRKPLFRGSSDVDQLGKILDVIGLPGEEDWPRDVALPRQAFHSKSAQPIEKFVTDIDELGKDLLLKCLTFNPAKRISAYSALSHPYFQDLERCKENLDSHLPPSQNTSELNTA
# T3 sequence (P30281 whole entry partner): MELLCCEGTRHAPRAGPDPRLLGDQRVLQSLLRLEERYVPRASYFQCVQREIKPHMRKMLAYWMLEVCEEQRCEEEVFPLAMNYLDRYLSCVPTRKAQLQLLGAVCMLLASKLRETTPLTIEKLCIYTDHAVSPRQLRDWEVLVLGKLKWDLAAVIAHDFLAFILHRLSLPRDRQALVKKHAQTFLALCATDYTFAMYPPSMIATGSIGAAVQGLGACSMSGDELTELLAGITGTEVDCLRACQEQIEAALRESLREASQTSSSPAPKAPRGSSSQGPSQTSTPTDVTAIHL
# T1 sequence (P11802 whole entry): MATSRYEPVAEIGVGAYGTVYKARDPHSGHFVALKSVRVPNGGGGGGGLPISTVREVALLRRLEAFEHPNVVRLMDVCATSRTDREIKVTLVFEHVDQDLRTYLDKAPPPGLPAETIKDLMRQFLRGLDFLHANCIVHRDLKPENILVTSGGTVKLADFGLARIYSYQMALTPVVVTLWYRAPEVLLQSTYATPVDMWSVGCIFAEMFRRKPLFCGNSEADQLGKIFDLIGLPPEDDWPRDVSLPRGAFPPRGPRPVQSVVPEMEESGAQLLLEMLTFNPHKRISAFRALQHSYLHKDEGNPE
# T1 sequence (P30281 whole entry partner): as the sequence (P30281 whole entry partner) above
Compound,IC50 [1] [nM],IC50 [2] [nM],IC50 [3] [nM],IC50 [4] [nM]
CS(=O)(=O)N1CCC(Nc2ncc(C(F)(F)F)c(-n3cccn3)n2)CC1 [Example 19],10 to 100,≥ 100,10 to 100,≤ 10
CCS(=O)(=O)N1C2CCC1CC(Nc1ncc(C(F)(F)F)c(-n3cccn3)n1)C2 (stereo not drawn) [Example 31],≥ 100,≥ 100,≥ 100,≥ 100
O=S(=O)(NCCOC(F)(F)F)c1ccc(Nc2ncc(C(F)(F)F)c(-n3cccn3)n2)cc1 [Example 128],≥ 100,≥ 100,≥ 100,≥ 100
NS(=O)(=O)c1ccc(Nc2ncc(C(F)(F)F)c(-n3cccn3)n2)c(F)c1 [Example 28],≥ 100,≥ 100,≥ 100,10 to 100
"CC(C)(O)Cc1cnn(-c2nc(N[C@H]3CCOC[C@@H]3O)ncc2C(F)(F)F)c1 (single isomer, unassigned) [Example 9]",≥ 100,≥ 100,≥ 100,≥ 100
"CC(O)Cc1cnn(-c2nc(NC3CCN(S(C)(=O)=O)CC3)ncc2C(F)(F)F)c1 (single isomer, unassigned) [Example 108]",10 to 100,≥ 100,10 to 100,10 to 100
CN1CCN(S(=O)(=O)c2ccc(Nc3ncc(C(F)(F)F)c(-n4cccn4)n3)cc2)CC1 [Example 38],≥ 100,≥ 100,≥ 100,10 to 100
O=S(=O)(NCCO)c1ccc(Nc2nccc(-n3cccn3)n2)cc1 [Example 118],≥ 100,≥ 100,≥ 100,≥ 100
Cc1cc(Nc2ncc(C(F)(F)F)c(-n3cccn3)n2)ccc1S(=O)(=O)NCCO [Example 125],≥ 100,≥ 100,≥ 100,10 to 100
CNS(=O)(=O)c1ccc(Nc2ncc(C(F)(F)F)c(-n3cccn3)n2)c(F)c1 [Example 27],≥ 100,≥ 100,≥ 100,≥ 100
O=C1NCc2cc(Nc3ncc(C(F)(F)F)c(-n4cccn4)n3)ccc21 [Example 39],≥ 100,≥ 100,≥ 100,≥ 100
Cc1cnc(Nc2ccc(S(=O)(=O)NCCO)cc2)nc1-n1cccn1 [Example 114],≥ 100,≥ 100,≥ 100,10 to 100
"CCS(=O)(=O)N1CC2(CC(Nc3ncc(C(F)(F)F)c(-n4cccn4)n3)C2)C1 [Example 32, 2-(ethyldioxo-λ6-sulfanyl)-6-{[4-(pyrazol-1-yl)-5-(trifluoromethyl)pyrimidin-2-yl]amino}-2-azaspiro[3.3]heptane]",≥ 100,≥ 100,≥ 100,≥ 100
[2H]C([2H])([2H])NS(=O)(=O)c1ccc(Nc2ncc(C(F)(F)F)c(-n3ccc(C(F)(F)F)n3)n2)cc1 [Example 54],≥ 100,≥ 100,≥ 100,10 to 100
O=S(=O)(NCCO)c1ccc(Nc2ncc(C(F)(F)F)c(-n3cccn3)n2)c(F)c1 [Example 124],≥ 100,≥ 100,≥ 100,≤ 10
"O=S(=O)(NCCO)c1ccc(Nc2ncc(C(F)F)c(-n3cccn3)n2)cc1 [Example 116, 4-((5-(difluoromethyl)-4-(1H-pyrazol-1-yl)pyrimidin-2-yl)amino)-N-(2-hydroxyethyl)benzenesulfonamide]",≥ 100,≥ 100,≥ 100,10 to 100

# Continued, values first:
IC50 [1] [nM],IC50 [2] [nM],IC50 [3] [nM],IC50 [4] [nM],Compound
≥ 100,≥ 100,≥ 100,≤ 10,"CNS(=O)(=O)c1ccc(Nc2ncc(C(F)(F)F)c(-n3cccn3)n2)cc1 [Example 16, N-methyl-4-[[4-pyrazol-1-yl-5-(trifluoromethyl)pyrimidin-2-yl]amino]benzene sulfonamide]"
≥ 100,≥ 100,≥ 100,10 to 100,CNS(=O)(=O)c1ccc(Nc2ncc(C(F)(F)F)c(-n3cc(CN4CCNCC4)cn3)n2)cc1 [Example 84]
≥ 100,≥ 100,≥ 100,10 to 100,CNS(=O)(=O)c1ccc(Nc2ncc(C(F)(F)F)c(-n3ccc(CC(C)(C)O)n3)n2)cc1 [Example 4]
10 to 100,≥ 100,10 to 100,≤ 10,CNS(=O)(=O)c1ccc(Nc2ncc(C(F)(F)F)c(-n3cc(C4COC4)cn3)n2)cc1 [Example 102]
10 to 100,10 to 100,10 to 100,≤ 10,CNS(=O)(=O)c1ccc(Nc2ncc(C(F)(F)F)c(-n3cc(C(C)(C)CO)cn3)n2)cc1 [Example 59]
10 to 100,10 to 100,≥ 100,≤ 10,"CNS(=O)(=O)c1ccc(Nc2ncc(C(F)(F)F)c(-n3cc(C4CCNC4)cn3)n2)cc1 (single isomer, unassigned) [Example 93]"
10 to 100,10 to 100,≥ 100,≤ 10,CNS(=O)(=O)c1ccc(Nc2ncc(C(F)(F)F)c(-n3cc(C4CN(C)C4)cn3)n2)cc1 [Example 97]
10 to 100,≥ 100,10 to 100,10 to 100,"CNS(=O)(=O)c1ccc(Nc2ncc(C(F)(F)F)c(-n3cc(C4CCOC4)cn3)n2)cc1 (single isomer, unassigned) [Example 90]"
10 to 100,10 to 100,≥ 100,≤ 10,"CNS(=O)(=O)c1ccc(Nc2ncc(C(F)(F)F)c(-n3cc(CC(C)(C)N)cn3)n2)cc1 [Example 72, 4-[[4-[4-(2-amino-2-methyl-propyl)pyrazol-1-yl]-5-(trifluoromethyl)pyrimidin-2-yl]amino]-N-methyl-benzene sulfonamide]"
10 to 100,10 to 100,≥ 100,≤ 10,CNS(=O)(=O)c1ccc(Nc2ncc(C(F)(F)F)c(-n3cc(N4CCNCC4)cn3)n2)cc1 [Example 85]
10 to 100,10 to 100,10 to 100,10 to 100,"CNS(=O)(=O)c1ccc(Nc2ncc(C(F)(F)F)c(-n3cc([C@H]4C[C@@](C)(O)C4)cn3)n2)cc1 (single isomer, unassigned) [Example 105, 4-((4-(4-((1r,3r)-3-hydroxy-3-methylcyclobutyl)-1H-pyrazol-1-yl)-5-(trifluoromethyl)pyrimidin-2-yl)amino)-N-methylbenzenesulfonamide]"
≥ 100,≥ 100,≥ 100,10 to 100,"CNS(=O)(=O)c1ccc(Nc2ncc(C(F)(F)F)c(-n3cc(N4CCCC4=O)cn3)n2)cc1 [Example 88, N-methyl-4-[[4-[4-(2-oxopyrrolidin-1-yl)pyrazol-1-yl]-5-(trifluoromethyl)pyrimidin-2-yl]amino]benzene sulfonamide]"
10 to 100,≥ 100,≥ 100,10 to 100,"CNS(=O)(=O)c1ccc(Nc2ncc(C(F)(F)F)c(-n3cc([C@H]4C[C@](C)(O)C4)cn3)n2)cc1 (single isomer, unassigned) [Example 104, 4-((4-(4-((1s,3s)-3-hydroxy-3-methylcyclobutyl)-1H-pyrazol-1-yl)-5-(trifluoromethyl)pyrimidin-2-yl)amino)-N-methylbenzenesulfonamide]"
10 to 100,10 to 100,≥ 100,10 to 100,CNS(=O)(=O)c1ccc(Nc2ncc(C(F)(F)F)c(-n3cc(C(C)(C)C(C)(C)O)cn3)n2)cc1 [Example 60]
≥ 100,≥ 100,≥ 100,10 to 100,CNS(=O)(=O)c1ccc(Nc2ncc(C(F)(F)F)c(-n3cc(Br)cn3)n2)cc1 [Example 44]
≥ 100,≥ 100,≥ 100,≤ 10,[2H]C([2H])([2H])NS(=O)(=O)c1ccc(Nc2ncc(C(F)(F)F)c(-n3cccn3)n2)cc1 [Example 17]
≥ 100,≥ 100,≥ 100,10 to 100,CNS(=O)(=O)c1ccc(Nc2ncc(C(F)(F)F)c(-n3cc(C4CCC4)cn3)n2)cc1 [Example 101]
